The source of these data is patent US20240383954A1, “PEPTIDE INHIBITORS OF INTERLEUKIN-23 RECEPTOR AND THEIR USE TO TREAT INFLAMMATORY DISEASES” (Janssen Biotech, Inc., priority 2020, published 2024).

Starred links: 1 amine or outer side, 2 acyl side, 3 side chain; linkers in the order of their positions; H or OH if unused. Positions of bridges follow the written chain, without caps; N, C: chain ends. Non-standard residues stand in square brackets, D forms with d. Residues, ends and D or L forms follow the SMILES beside them. Trp(7-Ph) = N[C@@H](Cc1c[nH]c2c(-c3ccccc3)cccc12)C(=O)O; Trp(7-Me) = Cc1cccc2c(C[C@H](N)C(=O)O)c[nH]c12; Abu(4-yl) = O=C([C@H](CC[*:3])N[*:1])[*:2]; 2Nal = N[C@@H](Cc1ccc2ccccc2c1)C(=O)O; AEF = NCCOc1ccc(C[C@H](N)C(=O)O)cc1; αMeF = C[C@](N)(Cc1ccccc1)C(=O)O; Cit = NC(=O)NCCC[C@H](N)C(=O)O; Pen = CC(C)(S)[C@H](N)C(=O)O; αMeK = C[C@](N)(CCCCN)C(=O)O; dDap = NC[C@@H](N)C(=O)O; Aib = CC(C)(N)C(=O)O

For the first assay, the target named is T1, IL-23R (Homo sapiens, UniProt Q5VWK5). Nature of the assay: cell-based.
T1 sequence (Q5VWK5 24-629): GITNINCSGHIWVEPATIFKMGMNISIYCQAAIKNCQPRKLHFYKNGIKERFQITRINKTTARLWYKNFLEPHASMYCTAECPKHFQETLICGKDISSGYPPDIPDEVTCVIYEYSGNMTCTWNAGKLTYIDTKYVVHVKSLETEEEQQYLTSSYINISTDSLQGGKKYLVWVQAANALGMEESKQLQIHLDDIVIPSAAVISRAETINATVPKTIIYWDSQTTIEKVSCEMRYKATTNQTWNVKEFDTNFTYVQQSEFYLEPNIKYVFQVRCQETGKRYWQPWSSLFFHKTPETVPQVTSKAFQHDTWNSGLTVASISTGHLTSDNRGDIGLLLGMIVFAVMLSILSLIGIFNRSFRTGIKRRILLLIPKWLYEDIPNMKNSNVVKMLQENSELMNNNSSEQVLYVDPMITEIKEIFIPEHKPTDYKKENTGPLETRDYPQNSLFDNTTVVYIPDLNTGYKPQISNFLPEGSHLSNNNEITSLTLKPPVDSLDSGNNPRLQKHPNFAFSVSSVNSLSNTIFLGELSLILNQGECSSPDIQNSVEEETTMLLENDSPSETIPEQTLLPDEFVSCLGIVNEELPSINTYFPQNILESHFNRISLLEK
Conditions: not given
In turn, `CC(=O)NCCCC[C@@H]1NC(=O)[C@H](Cc2c[nH]c3c(C)cccc23)NC(=O)[C@H]([C@@H](C)O)NC(=O)[C@H](CC(N)=O)NC(=O)[C@@H](NC(C)=O)C(C)(C)SSC(C)(C)[C@@H](C(=O)N[C@@H](Cc2ccc(OCCN)cc2)C(=O)N[C@@H](Cc2ccc3ccccc3c2)C(=O)N[C@@](C)(CCCCN)C(=O)N[C@@H](CCCCNC(C)=O)C(=O)N[C@@H](CC(N)=O)C(=O)N[C@H](CC(C)C)C(=O)N[C@@](C)(Cc2ccccc2)C(N)=O)NC1=O` [Compound 68, Ac-[Pen]-N-T-[W(7-Me)]-[Lys(Ac)]-[Pen]-Phe[4-(2-aminoethoxy)]-[2-Nal]-[a-MeLys]-[Lys(Ac)]-N-[(D)Leu]-[aMePhe]-am] returned an IC50 of 0.007 µM.

In the case of `CC(=O)NCCCC[C@@H]1NC(=O)[C@H](Cc2c[nH]c3c(C)cccc23)NC(=O)[C@@H](CC(=O)O)NC(=O)[C@H](CC(N)=O)NC(=O)[C@@H](NC(C)=O)C(C)(C)SSC(C)(C)[C@@H](C(=O)N[C@@H](Cc2ccc(OCCN)cc2)C(=O)N[C@@H](Cc2ccc3ccccc3c2)C(=O)N[C@@](C)(CCCCN)C(=O)N[C@@H](CCCCNC(C)=O)C(=O)N[C@@H](CC(N)=O)C(=O)N[C@H](CC(C)C)C(N)=O)NC1=O` [Compound 74, Ac-[Pen]-N-[(D)Asp]-[W(7-Me)]-[Lys(Ac)]-[Pen]-Phe[4-(2-aminoethoxy)]-[2-Nal]-[a-MeLys]-[Lys(Ac)]-N-[(D)Leu]-NH2] (Ac-[Pen]N[dD][Trp(7-Me)]K(Ac)[Pen][AEF][2Nal][αMeK]K(Ac)N[dL]-NH2; disulfide 1-6), the midpoint of inhibition, the IC50, lay at 0.0731 µM.

In turn, `CC(=O)NCCCC[C@@H]1NC(=O)[C@H](Cc2c[nH]c3c(C)cccc23)NC(=O)[C@H]([C@@H](C)O)NC(=O)[C@H](CC(N)=O)NC(=O)[C@@H](NC(C)=O)C(C)(C)SSC(C)(C)[C@@H](C(=O)N[C@@H](Cc2ccc(OCCN)cc2)C(=O)N[C@@H](Cc2ccc3ccccc3c2)C(=O)N[C@@](C)(CCCCN)C(=O)N[C@@H](CCCCNC(C)=O)C(=O)N[C@@H](CC(N)=O)C(=O)N[C@H](CC(C)C)C(=O)N[C@](C)(Cc2ccccc2)C(N)=O)NC1=O` [Compound 69, Ac-[Pen]-N-T-[W(7-Me)]-[Lys(Ac)]-[Pen]-Phe[4-(2-aminoethoxy)]-[2-Nal]-[a-MeLys]-[Lys(Ac)]-N-[(D)Leu]-[(D)aMePhe]-NH2] displayed an IC50 of 0.00275 µM.

On to `CC(=O)NCCCC[C@@H]1NC(=O)[C@H](Cc2c[nH]c3c(C)cccc23)NC(=O)[C@@H](CN)NC(=O)[C@H](CC(N)=O)NC(=O)[C@@H](NC(C)=O)C(C)(C)SSC(C)(C)[C@@H](C(=O)N[C@@H](Cc2ccc(OCCN)cc2)C(=O)N[C@@H](Cc2ccc3ccccc3c2)C(=O)N[C@@](C)(CCCCN)C(=O)N[C@@H](CCCCNC(C)=O)C(=O)N[C@@H](CC(N)=O)C(=O)N[C@H](CC(C)C)C(N)=O)NC1=O` [Compound 72, Ac-[Pen]-N-[(D)Dap]-[W(7-Me)]-[Lys(Ac)]-[Pen]-Phe[4-(2-aminoethoxy)]-[2-Nal]-[a-MeLys]-[Lys(Ac)]-N-[(D)Leu]-NH2] (Ac-[Pen]N[dDap][Trp(7-Me)]K(Ac)[Pen][AEF][2Nal][αMeK]K(Ac)N[dL]-NH2; disulfide 1-6), for which half-maximal inhibition (IC50) was put at 0.0526 µM.

`CC(=O)NCCCC[C@@H]1NC(=O)[C@H](Cc2c[nH]c3c(C)cccc23)NC(=O)[C@@H](CCCCN)NC(=O)[C@H](CC(N)=O)NC(=O)[C@@H](NC(C)=O)C(C)(C)SSC(C)(C)[C@@H](C(=O)N[C@@H](Cc2ccc(OCCN)cc2)C(=O)N[C@@H](Cc2ccc3ccccc3c2)C(=O)N[C@@](C)(CCCCN)C(=O)N[C@@H](CCCCNC(C)=O)C(=O)N[C@@H](CC(N)=O)C(=O)N[C@H](CC(C)C)C(N)=O)NC1=O` [Compound 73, Ac-[Pen]-N-[(D)Lys]-[W(7-Me)]-[Lys(Ac)]-[Pen]-Phe[4-(2-aminoethoxy)]-[2-Nal]-[a-MeLys]-[Lys(Ac)]-N-[(D)Leu]-NH2] (Ac-[Pen]N[dK][Trp(7-Me)]K(Ac)[Pen][AEF][2Nal][αMeK]K(Ac)N[dL]-NH2; disulfide 1-6): the IC50 amounted to 0.0511 µM.

`CC(=O)NCCCC[C@@H]1NC(=O)[C@H](Cc2c[nH]c3c(C)cccc23)NC(=O)[C@H]([C@@H](C)O)NC(=O)[C@H](CC(N)=O)NC(=O)[C@@H](NC(C)=O)C(C)(C)SSC(C)(C)[C@@H](C(=O)N[C@@H](Cc2ccc(OCCN)cc2)C(=O)N[C@@H](Cc2ccc3ccccc3c2)C(=O)N[C@@](C)(CCCCN)C(=O)N[C@@H](CCCCNC(C)=O)C(=O)N[C@@H](CC(N)=O)C(=O)N[C@@H](Cc2ccc(N)cc2)C(N)=O)NC1=O` [Compound 112, Ac-[Pen]-N-T-[W(7-Me)]-[Lys(Ac)]-[Pen]-Phe[4-(2-aminoethoxy)]-[2-Nal]-[a-MeLys]-[Lys(Ac)]-N-Phe[4-NH2]-NH2] registered an IC50 of 0.00209 µM.

In turn, `CC(=O)NCCCC[C@H](NC(=O)[C@](C)(CCCCN)NC(=O)[C@H](Cc1ccc2ccccc2c1)NC(=O)[C@H](Cc1ccc(OCCN)cc1)NC(=O)[C@H]1NC(=O)[C@H](CCCNC(N)=O)NC(=O)[C@H](Cc2c[nH]c3c(C)cccc23)NC(=O)[C@H]([C@@H](C)O)NC(=O)[C@H](CC(N)=O)NC(=O)[C@@H](NC(C)=O)C(C)(C)SSC1(C)C)C(=O)N[C@@H](CC(N)=O)C(=O)NC(C)(C)C(=O)N[C@H](Cc1ccc(O)cc1)C(N)=O` [Compound 202, Ac-[Pen]-N-T-[W(7-Me)]-[Cit]-[Pen]-Phe[4-(2-aminoethoxy)]-[2-Nal]-[a-MeLys]-[Lys(Ac)]-N-[Aib]-[(D)Tyr]-NH2] (Ac-[Pen]NT[Trp(7-Me)][Cit][Pen][AEF][2Nal][αMeK]K(Ac)N[Aib][dY]-NH2; disulfide 1-6) displayed an IC50 of 0.000637 µM.

The molecule `CC(=O)NCCCC[C@@H]1NC(=O)[C@H](Cc2c[nH]c3c(C)cccc23)NC(=O)[C@H]([C@@H](C)O)NC(=O)[C@H](CCC(N)=O)NC(=O)[C@@H](NC(=O)[C@@H](CCCNC(=N)N)NC(C)=O)CCSC[C@@H](C(=O)N[C@@H](Cc2ccc(OCCN)cc2)C(=O)N[C@@H](Cc2ccc3ccccc3c2)C(=O)N[C@@](C)(CCCCN)C(=O)N[C@@H](CCCCNC(C)=O)C(=O)N[C@@H](CC(N)=O)C(=O)N[C@@](C)(Cc2ccccc2)C(N)=O)NC1=O` [Compound 201, Ac-[(D)Arg]-[Abu]-Q-T-[W(7-Me)]-[Lys(Ac)]-[Cys]-Phe[4-(2-aminoethoxy)]-[2-Nal]-[a-MeLys]-[Lys(Ac)]-N-[a-MePhe]-NH2] (Ac-[dR][Abu(4-yl)]QT[Trp(7-Me)]K(Ac)C[AEF][2Nal][αMeK]K(Ac)N[αMeF]-NH2; thioether 2-7) registered an IC50 of 0.0127 µM.

The molecule `CC(=O)NCCCC[C@@H]1NC(=O)[C@H](Cc2c[nH]c3c(C)cccc23)NC(=O)[C@H]([C@@H](C)O)NC(=O)[C@H](CC(N)=O)NC(=O)[C@@H](NC(C)=O)C(C)(C)SSC(C)(C)[C@@H](C(=O)N[C@@H](Cc2ccc(OCCN)cc2)C(=O)N[C@@H](Cc2ccc3ccccc3c2)C(=O)N[C@@](C)(CCCCN)C(=O)N[C@@H](CCCCNC(C)=O)C(=O)N[C@@H](CC(N)=O)C(=O)NC(C)(C)C(=O)NCCCCCC(N)=O)NC1=O` [Compound 70, Ac-[Pen]-N-T-[W(7-Me)]-[Lys(Ac)]-[Pen]-Phe[4-(2-aminoethoxy)]-[2-Nal]-[a-MeLys]-[Lys(Ac)]-N-[Aib-Ahx]-NH2] gave an IC50 of 0.00122 µM.

Molecule `CC(=O)NCCCC[C@@H]1NC(=O)[C@H](Cc2c[nH]c3c(-c4ccccc4)cccc23)NC(=O)[C@H]([C@@H](C)O)NC(=O)[C@H](CCC(N)=O)NC(=O)[C@@H](NC(=O)[C@@H](CCCNC(=N)N)NC(C)=O)CCSC[C@@H](C(=O)N[C@@H](Cc2ccc(OCCN)cc2)C(=O)N[C@@H](Cc2ccc3ccccc3c2)C(=O)N[C@@](C)(CCCCN)C(=O)N[C@@H](CCCCNC(C)=O)C(=O)N[C@@H](CC(N)=O)C(=O)N[C@@](C)(Cc2ccccc2)C(N)=O)NC1=O` [Compound 11, Ac-[(D)Arg]-[Abu]-Q-T-[W(7-Ph)]-[Lys(Ac)]-[Cys]-Phe[4-(2-aminoethoxy)]-[2-Nal]-[a-MeLys]-[Lys(Ac)]-N-[a-MePhe]-NH2] (Ac-[dR][Abu(4-yl)]QT[Trp(7-Ph)]K(Ac)C[AEF][2Nal][αMeK]K(Ac)N[αMeF]-NH2; thioether 2-7) showed an IC50 of 0.0139 µM.

For another assay, the target named is T1, IL-23R. Nature of the assay: cell-based. The settings on record: PBMC pSTAT3 IC50 (nM), PBMCs from healthy donors, IL-23 5 ng/mL, 30 minutes, phosphorylated STAT3.
Experimental: Cryopreserved peripheral blood mononuclear cells (PBMCs) from healthy donors were thawed and washed twice in ImmunoCult-XF T cell expansion medium (XF-TCEM) supplemented with CTL anti-aggregate wash. […] The cells were stimulated with cytokine for 30 minutes at 37° C. in 5% CO2, transferred onto ice for 10 minutes, and lysed. Cell lysates were stored at −80° C. until phosphorylated STAT3 was measured using the phospho-STAT panel kit (Meso Scale Discovery, K15202D).
Take `CCC(=O)N[C@H](CCCNC(=N)N)C(=O)N[C@@H]1C(=O)N[C@@H](CCC(N)=O)C(=O)N[C@@H]([C@@H](C)O)C(=O)N[C@@H](Cc2c[nH]c3ccccc23)C(=O)N[C@@H](CCC(N)=O)C(=O)N[C@H](C(=O)N[C@@H](Cc2ccc(OCCN)cc2)C(=O)N[C@@H](Cc2ccc3ccccc3c2)C(=O)NC2(C(=O)N[C@@H](CCCCNC(=O)C(F)(F)F)C(=O)N[C@@H](CC(N)=O)C(=O)NC3(C(N)=O)CCOCC3)CCOCC2)C(C)(C)SSC1(C)C` [Compound 6, [Propionic_acid]-[(D)Arg]-[Pen]-Q-T-W-Q-[Pen]-Phe[4-(2-aminoethoxy)]-[2-Nal]-[THP]-[Lys(COCF3)]-N-[THP]-NH2]: it took 8.6 nM to reach half-maximal inhibition (IC50).

The target in the next assay is T1, IL-23R. Nature of the assay: cell-based.
Conditions: not given
This is another data set of the same source.
On to `CCC(=O)N[C@H](CCCNC(=N)N)C(=O)N[C@@H]1C(=O)N[C@@H](CCC(N)=O)C(=O)N[C@@H]([C@@H](C)O)C(=O)N[C@@H](Cc2c[nH]c3ccccc23)C(=O)N[C@@H](CCC(N)=O)C(=O)N[C@H](C(=O)N[C@@H](Cc2ccc(OCCN)cc2)C(=O)N[C@@H](Cc2ccc3ccccc3c2)C(=O)NC2(C(=O)N[C@@H](CCCCNC(=O)C(F)(F)F)C(=O)N[C@@H](CC(N)=O)C(=O)NC3(C(N)=O)CCOCC3)CCOCC2)C(C)(C)SSC1(C)C` [Compound 6, [Propionic_acid]-[(D)Arg]-[Pen]-Q-T-W-Q-[Pen]-Phe[4-(2-aminoethoxy)]-[2-Nal]-[THP]-[Lys(COCF3)]-N-[THP]-NH2], for which the IC50 amounted to 0.0168 µM.

The IC50 is the concentration that gives 50% inhibition. A low value points to higher potency.
